Assay results reported in patent publication US8551961B2, “Localized delivery of cardiac inotropic agents” (Massachusetts Institute of Technology, priority 2005, dated 2013).
Entries after “also recorded” stand apart in the source; their conditions may differ.

Tested on: Sprague Dawley rats
Assay: Pericardial application of dobutamine to the left ventricular free wall in anesthetized rats, hemodynamic recording
Type: in vivo, rat
Source text: Sprague Dawley rats ([…]) were anesthetized with an intraperitoneal injection of ketamine and xylazine. The rat was laid on a heating pad and maintained euthermic with warming lights. A 24 gauge intravenous catheter was placed in the tail vein and Ringer's lactate solution (LR) was infused at 10 cc/hr. The trachea was exposed through a vertical incision and cannulated with a 16 gauge blunt cannula that served as an endotracheal tube. The tube was connected to a ventilator for control of ventilation and respiration. The respiratory rate was set to 60 breaths per minute, inspiratory to expiratory time was set to 1:2 and inspiratory flow was 2 liters per minute. A midline sternotomy was performed, the heart exposed and the pericardium resected. The right carotid artery was dissected clean of fascia and care was taken to preserve the adjacent vagus nerve. A polyethelene (PE-50) cannula was inserted via an arteriotomy into the carotid artery and advanced through the ascending aorta into the left ventricle. This ventricular cannula was connected to a high fidelity pressure transducer and digital data acquisition system to record hemodynamic measures. Heart rate (HR), left ventricular systolic blood pressure (SBP), and the maximum rate of change of blood pressure in the left ventricle during isovolemic contraction (dp/dt max) was all recorded. The dp/dt max is the gold standard index of myocardial contractility.
Following cannulation the rat was stabilized for 30 minutes. Five-second recordings of HR, SBP and dp/dt max were captured every 3 to 5 minutes. SBP and dp/dt max were averaged over all the beats captured in the 5-second interval. Dobutamine (313 mcg/ml), a potent beta agonist inotropic agent, was delivered to the left ventricular free wall through the sternotomy using an infusion pump connected to a 24 gauge IV cannula that was suspended directly over the heart (4 mcg/min, 0.8 ml/hr). […] After 30 minutes the pericardial application of dobutamine was terminated and hemodynamic measurements were recorded for an additional 30 minutes.

CC(CCc1ccc(O)cc1)NCCc1ccc(O)c(O)c1 (stereo not drawn) [dobutamine]
Left ventricular systolic blood pressure / systemic blood pressure (dobutamine 4 mcg/min for 30 minutes, local pericardial delivery, FIG. 2): increased
Heart rate (dobutamine 4 mcg/min for 30 minutes, topical application to the heart, FIG. 3): increased
Contractility (max dp/dt of left ventricular pressure during isovolemic contraction) (dobutamine 313 mcg/ml, 4 mcg/min (0.8 ml/hr) for 30 minutes, applied directly to left ventricular free wall, FIG. 1): increased significantly; also recorded: significantly increased
